The subject of assay [1] is Daoy cell transfected with empty virus vector without carrying shRNA. Nature of the assay: TMRM mitochondria membrane potential in Daoy cell transfected with empty virus vector (Con shRNA). As to conditions: H2O2 +, CsA −, untreated = 100. Format: cell-based, human.
For assay [2], the system named is Daoy cell transfected with virus vector carrying shRNA that induces degradation of PPIF mRNA. Description: TMRM mitochondria membrane potential in Daoy cell transfected with PPIF shRNA. Particulars: H2O2 +, CsA −, untreated = 100. The assay is classed as cell-based, human.
In assay [3] the test system is Daoy cell. Description: TMRM mitochondria membrane potential in Daoy cell after CsA / H2O2 treatment. The assay is classed as cell-based, human. Particulars: untreated = 100. The source says: The mitochondria permeability transition pore (mPTP) was a non-specific channel on the inner membrane of mitochondria, which could allow small molecules with molecular less than 1.5KD to pass freely, and its activity was affected by peroxides (such as H2O2), pH and calcium ions in mitochondria. […] For cells with active mitochondria permeability transition pore, adding peroxide (such as H2O2) could increase the activity of mitochondria permeability transition pore, resulting in a decrease in mitochondna membrane potential.

The subject of assay [4] is ov-NNMT NCI-H82 cell. Nature of the assay: CellTiter-Glo cell viability inhibition, ov-NNMT NCI-H82 cell. Format: cell-based. As to conditions: Homo sapiens, NCI-H82 cell overexpressing NNMT protein. The source says:
(§1) The expression of NNMT protein in NCI-H82 cell was overexpressed by inserting the NNMT gene into NCI-H82 cell using a viral vector, and the NNMT protein-overexpressing NCI-H82 cell (ov-NNMT NCI-H82 cell) was obtained. The control NCI-H82 cell (Con-NCI-H82 cell) was obtained by transfecting NCI-H82 cell with empty virus vector without carrying NNMT gene. The expressing content of NNMT protein in the Con-NCI-H82 cell and ov-NNMT NCI-H82 cell was detected using Western Blot assay (as shown in FIG. 3), it could be seen from FIG. 3 that the NNMT protein was overexpressed in the ov-NNMT NCI-H82 cell compared with the expression level of NNMT protein in the Con-NCI-H82 cell.

In assay [5] the test system is mPTP-inactive Daoy cell. Description: CellTiter-Glo cell viability inhibition, mPTP-inactive Daoy cell. The assay is classed as cell-based. As to conditions: Homo sapiens, Daoy cell transfected with PPIF shRNA vector.
The subject of assay [6] is Con-NCI-H82 cell. Nature of the assay: CellTiter-Glo cell viability inhibition, Con-NCI-H82 cell. The assay is classed as cell-based. As to conditions: Homo sapiens, NCI-H82 cell transfected with empty virus vector.
Description: as §1

Assay [7] concerns mPTP-active Daoy cell. Description: CellTiter-Glo cell viability inhibition, mPTP-active Daoy cell. Particulars: Homo sapiens; Daoy cell transfected with empty virus vector; CellTiter-Glo; read-out: mPTP-active Daoy cell (IC50). Format: cell-based.

pIC50: −log10 of the molar value.

With `OO` [Compound H2O2, H2O2], the “Relative TMRM signal intensity (%), mean value” in assay [1] amounted to 79%; in assay [2] it was 95%. For the same compound, in assay [3], the “Relative TMRM signal intensity (%) in Daoy cell, mean value” came to 82%.

For `Cn1ccc2c([P+](c3ccccc3)(c3ccccc3)c3cccc4[nH]ncc34)cccc21` [AB35577], the half-maximal inhibitory concentration (IC50) is 4.54 µM in assay [4] and 1.08 µM in assay [6]. Also, the pIC50 in assay [5] is 5.92; in assay [7], 5.41.

In the case of `c1ccc([P+](c2ccccc2)(c2ccc3[nH]ccc3c2)c2cnc3[nH]ccc3c2)cc1` [AB35537], the 50% inhibitory concentration (IC50) in assay [4] was 2.33 µM; in assay [6], 0.51 µM. Besides, the values for the pIC50 in assay [5] and in assay [7] were 6.10 and 5.65, respectively.

On to `COc1ccc([P+](c2ccc(OC)cc2)(c2cccc3c2ccn3C)c2cccc3c2cnn3C)cc1` [AB36438], for which the IC50 in assay [4] was 1.53 µM; in assay [6], 0.32 µM. Moreover, the pIC50 was 6.62 in assay [5] and 5.99 in assay [7].

Take `c1ccc([P+](c2ccccc2)(c2ccccc2)c2cccc3sccc23)cc1` [AB36535]: the IC50 in assay [4] came to 2.32 µM; in assay [6], 0.46 µM. Moreover, the pIC50 in assay [5] was 6.43; in assay [7], 5.81.

`Cn1ccc2cc([P+](c3ccccc3)(c3ccccc3)c3ccccc3)ccc21` [AB35571]: the IC50 is 1.43 µM in assay [4] and 0.19 µM in assay [6]. Moreover, the results for the pIC50 in assay [5] and in assay [7] were 6.57 and 5.86, respectively.

`COc1ccc([P+](c2ccc(OC)cc2)(c2cccc3nn(C)cc23)c2cccc3c2ccn3C)cc1` [AB36444]: the 50% inhibitory concentration (IC50) in assay [4] was found to be 3.91 µM; in assay [6], 0.86 µM. Moreover, the pIC50 is 6.26 in assay [5] and 5.70 in assay [7].

Take `CCCCCCCCCCCCCC[P+](c1ccccc1)(c1ccccc1)c1ccccc1` [SJ00006]: the IC50 worked out at 0.14 µM in assay [4] and 0.13 µM in assay [6]. Besides, the pIC50 in assay [5] was 6.47; in assay [7], 6.54.

`c1ccc([P+](c2ccccc2)(c2ccc3[nH]ccc3c2)c2ccc3[nH]ccc3n2)cc1` [AB35597]: the results for the IC50 in assay [4] and in assay [6] were 1.85 µM and 0.18 µM, respectively. The pIC50 in assay [5] is 6.62; in assay [7] it was 5.93.

For the compound `COc1ccc([P+](c2ccc(OC)cc2)(c2cc3cc[nH]c3cn2)c2cccc3[nH]ccc23)cc1` [AB36453], the results for the IC50 in assay [4] and in assay [6] were 1.62 µM and 0.35 µM, respectively. For the same compound, the figures for the pIC50 in assay [5] and in assay [7] were 6.54 and 5.73, respectively.

As to `c1ccc([P+](c2ccccc2)(c2cnc3cc[nH]c3c2)c2cccc3[nH]ccc23)cc1` [AB35570], the IC50 is 11.8 µM in assay [4] and 3.34 µM in assay [6]. Also, the pIC50 in assay [5] is 5.40; in assay [7], 4.81.

Turning to `c1ccc([P+](c2ccccc2)(c2ccc3[nH]cnc3c2)c2cccc3[nH]ccc23)cc1` [AB35569], the half-maximal inhibitory concentration (IC50) in assay [4] worked out at 5.34 µM; in assay [6] it was 1.66 µM. The pIC50 is 5.63 in assay [5] and 4.91 in assay [7].

As to `COc1ccc([P+](c2ccc(OC)cc2)(c2cccc3c2ccn3C)c2ccnc3c2ccn3C)cc1` [AB36407], the IC50 in assay [4] worked out at 1.55 µM; in assay [6], 0.24 µM. In addition, the pIC50 in assay [5] was 6.62; in assay [7] it was 5.95.

In the case of `c1ccc([P+](c2ccccc2)(c2ccccc2)c2cccc3occc23)cc1` [AB36521], the IC50 in assay [4] was found to be 1.92 µM; in assay [6] it was 0.47 µM. Further, the negative-log IC50 (pIC50) in assay [5] is 6.12; in assay [7], 5.61.

`c1ccc([P+](c2ccccc2)(c2ccc3cc[nH]c3n2)c2cccc3[nH]ccc23)cc1` [AB35589]: the results for the IC50 in assay [4] and in assay [6] were 2.34 µM and 0.32 µM, respectively. For the same compound, the results for the pIC50 in assay [5] and in assay [7] were 6.44 and 5.82, respectively.

With `[C-]#[N+]N=P(c1ccccc1)(c1ccccc1)c1ccccc1` [SJ00004], the IC50 in assay [4] stood at 5.32 µM; in assay [6], 5.51 µM. Moreover, the results for the pIC50 in assay [5] and in assay [7] were 5.10 and 5.05, respectively.

For the compound `c1ccc([P+](c2ccccc2)(c2ccc3[nH]ccc3c2)c2ccc3[nH]cnc3c2)cc1` [AB35539], the IC50 came out at 6.03 µM in assay [4] and 1.55 µM in assay [6]. Further, the pIC50 is 5.41 in assay [5] and 4.91 in assay [7].

Consider `c1ccc([P+](c2ccccc2)(c2ccc3cc[nH]c3c2)c2ccc3cn[nH]c3c2)cc1` [AB35538], for which the IC50 in assay [4] worked out at 3.86 µM; in assay [6], 0.97 µM. For the same compound, the pIC50 in assay [5] was 5.77; in assay [7], 5.23.

Regarding `c1ccc([P+](c2ccccc2)(c2ccccc2)c2cccc3c2ccn3CCN2CCOCC2)cc1` [AB35585], the results for the IC50 in assay [4] and in assay [6] were 3.34 µM and 0.52 µM, respectively. The pIC50 in assay [5] was 5.91; in assay [7], 5.45.

With `COc1ccc([P+](c2ccc(OC)cc2)(c2cccc3c2cnn3C)c2cccc3c2cnn3C)cc1` [AB36439], the figures for the IC50 in assay [4] and in assay [6] were 7.83 µM and 3.07 µM, respectively. The figures for the pIC50 in assay [5] and in assay [7] were 5.89 and 5.36, respectively.

Turning to `COc1ccc([P+](c2ccc(OC)cc2)(c2cccc3[nH]ccc23)c2cccc3[nH]ncc23)cc1` [AB36498], the IC50 in assay [4] was determined as 3.43 µM; in assay [6] it was 1.01 µM. The results for the pIC50 in assay [5] and in assay [7] were 5.88 and 5.18, respectively.

The record behind these values is patent publication US20250304608A1, “PHOSPHORUS COMPOUND AND USE THEREOF” (SHANGHAI SHIJIANG BIOTECHNOLOGY CO., LTD., priority 2022, published 2025).
